The test system of this assay is spontaneously hypertensive rats (SHR). The experiment in a line: Hypotensive effect after oral administration, tail-cuff method. Format: in vivo, rat. Conditions: SHR (male), 32 mg/kg body weight, 5 hours after administration vs before. As to the method:
Each of the casein hydrolysate powders prepared in Example and Comparative Examples shown in Table 1 were administered orally to five 27-week-old spontaneously hypertensive rats (SHR) (male) at a dose of 32 mg/kg body weight. Blood pressure was measured before the administration and 5 hours after the administration by tail-cuff method with Tail-cuff PB-98 (manufacture by SOFTRON) to evaluate the change in blood pressure. As a control, casein was administered instead of the powders, and the same evaluation was made. Before the measurement of blood pressure, rats were warmed in a preheat box (manufactured by CSI JAPAN) at 45° C. for 8 minutes.
Further, in accordance with the above method, a dose-dependent hypotensive effect was tested using the casein hydrolysate powders prepared in Example 1.

For casein [Control], the “Blood pressure drop (average ± SD)” value is reported as −2.5 ± 7.5. The “Blood pressure drop (average ± SD)” value (listed as casein) is on record as “no change in blood pressure was observed”.

For the origin of these results see patent publication US8580557B2, “Casein hydrolyzate, process for producing the same and use thereof” (Calpis Co., Ltd., priority 2003, dated 2013).
